Test results from patent US12139492B2 (Endotarget Inc., priority 2021, dated 2024).
Where two headings read alike, the source gives them in different places.

Assays:
Mino cells = assay: Antiproliferative effect, MTS cell viability assay, Mino cells; type: cell-based; settings: Mino mantle cell lymphoma cells, read-out: IC50 (anti-proliferation) Mino cells
How it was run: (§1)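 Readout was MTS-derived formazan absorbance (490 nm) reflecting metabolically active cells. Treatment lasted 72 h over a 0–10 μM range (0.001, 0.01, 0.1, 1, 10 μM) in JeKo-1 and Mino B-cell malignancy cells.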

JeKo-1 cells = assay: Antiproliferative effect, MTS cell viability assay, JeKo-1 cells; type: cell-based; settings: JeKo-1 mantle cell lymphoma cells, read-out: IC50 (anti-proliferation) JeKO-1 cells
How it was run: as §1

BTK [1] = molecular target: T1, BTK (Homo sapiens, UniProt Q06187); assay: BTK degradation, DC50 and Dmax of Table 1 (cell line not given); type: cell-based; set-up: endogenous in cells; settings: for DC50: concentration giving 50% reduction of BTK expression level
BTK [2] = molecular target: T1, BTK; assay: Degradation of BTK protein in Namalwa cells (Western blot; DC50, Dmax); settings: for DC50: read-out: DC50 (BTK degradation), concentration giving 50% reduction of BTK expression level; for Dmax: read-out: Dmax (BTK degradation)

T1 sequence (Q06187 whole entry): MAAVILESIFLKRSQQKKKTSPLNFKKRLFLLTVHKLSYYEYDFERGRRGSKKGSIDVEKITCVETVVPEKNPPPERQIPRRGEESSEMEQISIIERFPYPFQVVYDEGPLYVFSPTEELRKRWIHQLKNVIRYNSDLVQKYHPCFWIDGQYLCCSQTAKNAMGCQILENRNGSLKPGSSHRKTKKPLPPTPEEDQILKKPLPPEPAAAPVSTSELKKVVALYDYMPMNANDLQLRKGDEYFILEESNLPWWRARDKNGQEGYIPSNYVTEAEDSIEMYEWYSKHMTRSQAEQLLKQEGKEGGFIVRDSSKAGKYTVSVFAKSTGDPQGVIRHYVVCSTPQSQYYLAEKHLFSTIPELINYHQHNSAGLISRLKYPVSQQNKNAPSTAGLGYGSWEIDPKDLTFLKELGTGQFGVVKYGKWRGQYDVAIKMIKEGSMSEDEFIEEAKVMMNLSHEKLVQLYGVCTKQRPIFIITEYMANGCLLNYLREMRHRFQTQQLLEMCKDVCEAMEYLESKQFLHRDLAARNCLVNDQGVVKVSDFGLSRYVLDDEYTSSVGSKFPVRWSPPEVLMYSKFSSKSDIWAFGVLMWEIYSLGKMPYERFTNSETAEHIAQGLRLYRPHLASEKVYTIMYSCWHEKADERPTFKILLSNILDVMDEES

| Compound | IC50 (Mino cells) | IC50 (JeKo-1 cells) | Dmax (BTK degradation) (BTK [1]) | DC50 (BTK [1]) | IC50 (Mino cells; Homo sapiens, MINO) | IC50 (JeKo-1 cells; Homo sapiens) | Dmax (BTK [1]) | DC50 (BTK [2]; cell line not given) | Dmax (BTK [2]) | Dmax (BTK degradation) (BTK [2]; cell line not given) |
| --- | --- | --- | --- | --- | --- | --- | --- | --- | --- | --- |
| 3-(5-(4-(2-(2-(3-(4-amino-3-(4- phenoxyphenyl)-1H-pyrazolo[3,4- d]pyrimidin-1-yl)piperidin-1- yl)ethoxy)ethyl)piperidin-1-yl)-1- oxoisindolin-2-yl)piperidine-2,6- dione [Compound 24] | 1 to 10 µM | 1 to 10 µM | A (A >90%) | 0.01 to 0.05 µM |  |  |  |  |  |  |
| Nc1ncnc2c1c(-c1ccc(Oc3ccccc3)cc1)nn2C1CCCN(CCOCCOCCN2CCN(c3ccc4c(c3)C(=O)N(C3CCC(=O)NC3=O)C4=O)CC2)C1 (stereo not drawn) [Compound 3, 5-(4-(2-(2-(2-(3-(4-amino-3-(4-phenoxyphenyl)-1H-pyrazolo[3,4-d]pyrimidin-1-yl)piperidin-1-yl)ethoxy)ethoxy)ethyl)piperazin-1-yl)-2-(2,6-dioxopiperidin-3-yl)isoindoline-1,3-dione] |  |  |  | < 0.01 µM | 1 to 10 µM | 1 to 10 µM | > 90% |  |  |  |
| Nc1ncnc2c1c(-c1ccc(Oc3ccccc3)cc1)nn2C1CCCN(CCOCCOCCN2CCN(c3ccc4c(c3)CN(C3CCC(=O)NC3=O)C4=O)CC2)C1 (stereo not drawn) [Compound 4, 3-(5-(4-(2-(2-(2-(3-(4-amino-3-(4-phenoxyphenyl)-1H-pyrazolo[3,4-d]pyrimidin-1-yl)piperidin-1-yl)ethoxy)ethoxy)ethyl)piperazin-1-yl)-1-oxoisoindolin-2-yl)piperidine-2,6-dione] |  |  |  | < 0.01 µM | 1 to 10 µM | 1 to 10 µM | > 90% |  |  |  |
| Nc1ncnc2c1c(-c1ccc(Oc3ccccc3)cc1)nn2C1CCN(C2CCN(CCN3CCC(c4ccc(N5CCC(=O)NC5=O)cc4)CC3)CC2)CC1 [Compound 569, 1-(4-(1-(2-(4-(4-amino-3-(4-phenoxyphenyl)-1H-pyrazolo[3,4-d]pyrimidin-1-yl)-[1,4′-bipiperidin]-1′-yl)ethyl)piperidin-4-yl)phenyl)dihydropyrimidine-2,4(1H,3H)-dione] |  |  |  |  | 1 to 10 µM | 1 to 10 µM |  | 0.01 to 0.05 µM | > 90% |  |
| Nc1ncnc2c1c(-c1ccc(Oc3ccccc3)cc1)nn2C1CCN(C2CCN(CCN3CCN(c4ccc(N5CCC(=O)NC5=O)cc4)CC3)CC2)CC1 [Compound 570, 1-(4-(4-(2-(4-(4-amino-3-(4-phenoxyphenyl)-1H-pyrazolo[3,4-d]pyrimidin-1-yl)-[1,4′-bipiperidin]-1′-yl)ethyl)piperazin-1-yl)phenyl)dihydropyrimidine-2,4(1H,3H)-dione] |  |  |  |  | 1 to 10 µM | 1 to 10 µM |  | 0.01 to 0.05 µM | > 90% |  |
| Nc1ncnc2c1c(-c1ccc(Oc3ccccc3)cc1)nn2C1CCN(C2CCN(CCCN3CCC(c4ccc(N5CCC(=O)NC5=O)cc4)CC3)CC2)CC1 [Compound 571, 1-(4-(1-(3-(4-(4-amino-3-(4-phenoxyphenyl)-1H-pyrazolo[3,4-d]pyrimidin-1-yl)-[1,4′-bipiperidin]-1′-yl)propyl)piperidin-4-yl)phenyl)dihydropyrimidine-2,4(1H,3H)-dione] |  |  |  |  | < 1 µM | < 1 µM |  | 0.01 to 0.05 µM | > 90% |  |
| Nc1ncnc2c1c(-c1ccc(Oc3ccccc3)cc1)nn2C1CCN(C2CCN(CCCN3CCN(c4ccc(N5CCC(=O)NC5=O)cc4)CC3)CC2)CC1 [Compound 572, 1-(4-(4-(3-(4-(4-amino-3-(4-phenoxyphenyl)-1H-pyrazolo[3,4-d]pyrimidin-1-yl)-[1,4′-bipiperidin]-1′-yl)propyl)piperazin-1-yl)phenyl)dihydropyrimidine-2,4(1H,3H)-dione] |  |  |  |  | < 1 µM | < 1 µM |  | 0.01 to 0.05 µM | > 90% |  |
| Nc1ncnc2c1c(-c1ccc(Oc3ccccc3)cc1)nn2C1CCN(C2CCN(CC3CCN(c4ccc(N5CCC(=O)NC5=O)cc4)CC3)C2)CC1 (stereo not drawn) [Compound 573, 1-(4-(4-((3-(4-(4-amino-3-(4-phenoxyphenyl)-1H-pyrazolo[3,4-d]pyrimidin-1-yl)piperidin-1-yl)pyrrolidin-1-yl)methyl)piperidin-1-yl)phenyl)dihydropyrimidine-2,4(1H,3H)-dione] |  |  |  |  | 1 to 10 µM | < 1 µM |  | < 0.01 µM | > 75% |  |
| Nc1ncnc2c1c(-c1ccc(Oc3ccccc3)cc1)nn2C1CCN(C2CCN(CCN3CCC(c4ccc(N5CCC(=O)NC5=O)cc4)CC3)C2)CC1 (stereo not drawn) [Compound 574, 1-(4-(1-(2-(3-(4-(4-amino-3-(4-phenoxyphenyl)-1H-pyrazolo[3,4-d]pyrimidin-1-yl)piperidin-1-yl)pyrrolidin-1-yl)ethyl)piperidin-4-yl)phenyl)dihydropyrimidine-2,4(1H,3H)-dione] |  |  |  |  | 1 to 10 µM | 1 to 10 µM |  | 0.01 to 0.05 µM | > 90% |  |
| Nc1ncnc2c1c(-c1ccc(Oc3ccccc3)cc1)nn2C1CCN(C2CCN(CCN3CCN(c4ccc(N5CCC(=O)NC5=O)cc4)CC3)C2)CC1 (stereo not drawn) [Compound 575, 1-(4-(4-(2-(3-(4-(4-amino-3-(4-phenoxyphenyl)-1H-pyrazolo[3,4-d]pyrimidin-1-yl)piperidin-1-yl)pyrrolidin-1-yl)ethyl)piperazin-1-yl)phenyl)dihydropyrimidine-2,4(1H,3H)-dione] |  |  |  |  | 1 to 10 µM | 1 to 10 µM |  | < 0.01 µM | > 90% |  |
| Nc1ncnc2c1c(-c1ccc(Oc3ccccc3)cc1)nn2C1CCN(C2CCN(CCCN3CCC(c4ccc(N5CCC(=O)NC5=O)cc4)CC3)C2)CC1 (stereo not drawn) [Compound 576, 1-(4-(1-(3-(3-(4-(4-amino-3-(4-phenoxyphenyl)-1H-pyrazolo[3,4-d]pyrimidin-1-yl)piperidin-1-yl)pyrrolidin-1-yl)propyl)piperidin-4-yl)phenyl)dihydropyrimidine-2,4(1H,3H)-dione] |  |  |  |  | 1 to 10 µM | < 1 µM |  | < 0.01 µM | > 90% |  |
| Nc1ncnc2c1c(-c1ccc(Oc3ccccc3)cc1)nn2C1CCN(C2CCN(CCCN3CCN(c4ccc(N5CCC(=O)NC5=O)cc4)CC3)C2)CC1 (stereo not drawn) [Compound 577, 1-(4-(4-(3-(3-(4-(4-amino-3-(4-phenoxyphenyl)-1H-pyrazolo[3,4-d]pyrimidin-1-yl)piperidin-1-yl)pyrrolidin-1-yl)propyl)piperazin-1-yl)phenyl)dihydropyrimidine-2,4(1H,3H)-dione] |  |  |  |  | 1 to 10 µM | 1 to 10 µM |  | < 0.01 µM | > 90% |  |
| Nc1ncnc2c1c(-c1ccc(Oc3ccccc3)cc1)nn2C1CCN(C2CCN(CC3CCN(c4ccc(NC5CCC(=O)NC5=O)cc4)CC3)CC2)CC1 (stereo not drawn) [Compound 578, 3-((4-(4-((4-(4-amino-3-(4-phenoxyphenyl)-1H-pyrazolo[3,4-d]pyrimidin-1-yl)-[1,4′-bipiperidin]-1′-yl)methyl)piperidin-1-yl)phenyl)amino)piperidine-2,6-dione] |  |  |  |  | 1 to 10 µM | 1 to 10 µM |  | 0.01 to 0.05 µM | > 90% |  |
| Nc1ncnc2c1c(-c1ccc(Oc3ccccc3)cc1)nn2C1CCN(C2CCN(CCN3CCC(c4ccc(NC5CCC(=O)NC5=O)cc4)CC3)CC2)CC1 (stereo not drawn) [Compound 579, 3-((4-(1-(2-(4-(4-amino-3-(4-phenoxyphenyl)-1H-pyrazolo[3,4-d]pyrimidin-1-yl)-[1,4′-bipiperidin]-1′-yl)ethyl)piperidin-4-yl)phenyl)amino)piperidine-2,6-dione] |  |  |  |  | < 1 µM | < 1 µM |  | 0.01 to 0.05 µM | > 90% |  |
| Nc1ncnc2c1c(-c1ccc(Oc3ccccc3)cc1)nn2C1CCN(C2CCN(CCCN3CCC(c4ccc(NC5CCC(=O)NC5=O)cc4)CC3)CC2)CC1 (stereo not drawn) [Compound 580, 3-((4-(1-(3-(4-(4-amino-3-(4-phenoxyphenyl)-1H-pyrazolo[3,4-d]pyrimidin-1-yl)-[1,4′-bipiperidin]-1′-yl)propyl)piperidin-4-yl)phenyl)amino)piperidine-2,6-dione] |  |  |  |  | < 1 µM | < 1 µM |  | < 0.01 µM | > 90% |  |
| Nc1ncnc2c1c(-c1ccc(Oc3ccccc3)cc1)nn2C1CCN(C2CCN(CCN3CCN(c4ccc(NC5CCC(=O)NC5=O)cc4)CC3)CC2)CC1 (stereo not drawn) [Compound 581, 3-((4-(4-(2-(4-(4-amino-3-(4-phenoxyphenyl)-1H-pyrazolo[3,4-d]pyrimidin-1-yl)-[1,4′-bipiperidin]-1′-yl)ethyl)piperazin-1-yl)phenyl)amino)piperidine-2,6-dione] |  |  |  |  | < 1 µM | < 1 µM |  | < 0.01 µM | > 90% |  |
| Nc1ncnc2c1c(-c1ccc(Oc3ccccc3)cc1)nn2C1CCN(CC2CCN(CCCN3CCN(c4ccc(N5CCC(=O)NC5=O)cc4)CC3)CC2)CC1 [Compound 582, 1-(4-(4-(3-(4-((4-(4-amino-3-(4-phenoxyphenyl)-1H-pyrazolo[3,4-d]pyrimidin-1-yl)piperidin-1-yl)methyl)piperidin-1-yl)propyl)piperazin-1-yl)phenyl)dihydropyrimidine-2,4(1H,3H)-dione] |  |  |  |  | < 1 µM | 1 to 10 µM |  | 0.01 to 0.05 µM | > 90% |  |
| (7S)-7-(1-((1-(4-(2-(2,6- dioxopiperidin-3-yl)-1,3- dioxoisoindolin-5-yl)piperazine-1- carbonyl)piperidin-1- yl)methyl)piperidin-4-yl)-2-(4- phenoxyphenyl)-4,5,6,7- tetrahydropyrazolo[1,5-a]pyrimidine- 3-carboxamide [Compound 397] | > 10 µM | 1 to 10 µM |  |  |  |  |  | > 0.05 µM |  | B (B >75%) |
